# Source: US20220280614A1 (CASE WESTERN RESERVE UNIVERSITY, priority 2019, published 2022)
# System: male Sprague-Dawley rats (ca. 300 g) rendered diabetic by streptozotocin
# Experiment: Biological activity and pharmacodynamics (blood glucose over time) after subcutaneous injection in diabetic rats
# Format: in vivo, rat
# Conditions: premixed clear solution of SCI-A and SCI-B, unbuffered, pH 4.0, FIGS. 8-10
# Experimental: FIG. 7 is a graph showing blood glucose levels over time for diabetic rats (time 0 blood glucose of 375±20 mg/dl) injected subcutaneously with indicated analogue/300 g body weight.
# FIG. 8 is a graph showing blood glucose levels over time for diabetic rats (time 0 blood glucose of 350-400 [±20 mg/dl]) injected subcutaneously with 1 unit of the indicated analog/300 g body weight. ( ? ) diluent control; (●) an SCI-A (SEQ ID NO: 5); (●) an example of an SCI-B (SEQ ID NO: 6) as formulated at neutral pH; and (♦) equimolar premixed clear solution of this SCI-A and this specific SCI-B as formulated in soluble form in an unbuffered solution at pH 4.0. Respective doses: 20 μg of each protein per 300 gram rat (singly); 20 μg and 20 μg in the case of the premixed solution to a total [SCI-A+SCI-B] combined dose of 40 μg.
# FIG. 9 is a graph showing blood glucose levels over time for diabetic rats (time 0 blood glucose of 400±20 mg/dl) injected subcutaneously with indicated analogue/300 g body weight. […] Respective doses: 0.75 units SCI-A, 0.25 units SCI-B; and premixture of 0.75 units SCI-A and 0.25 units SCI-B.
# FIG. 10 is a graph showing blood glucose levels over time for diabetic rats (time 0 blood glucose of 385±20 mg/dl) injected subcutaneously with indicated analogue/300 g body weight. […] Respective doses: 0.75 units SCI-A, 0.25 units SCI-B; and premixture of 0.75 units SCI-A and 0.25 units SCI-B.
# Biological activity and pharmacodynamics were tested in male Sprague-Dawley rats (ca. 300 g) rendered diabetic by streptozotocin (FIG. 7).
# Each of the three SCI-B analogues contained a six-residue C domain and an A-domain substitution known in the art to enhance stability and receptor-binding affinity (HisA8). The first SCI-B (SEQ ID NO: 6; FIG. 8) contained C domain sequence EEGPRR (positions 31-36). This analogue also contained insulin-moiety substitutions GluA14 and GluB29. The second example of an SCI-B (SEQ ID NO: 7; FIG. 9) contained C domain sequence EAAAAA (positions 31-36) and insulin-moiety substitutions GluA14, AspB28 and ProB29. […]
row,Substance,effect of premixed SCI-A (SEQ ID NO: 5) on the rapid initial phase of insulin action of the SCI-B component
1,"SEQ ID NO: 6: single-chain insulin analogue SCI-B, C domain EEGPRR, substitutions GluA14 and GluB29; rapid-acting component (FVNQHLCGSHLVEALYLVCGERGFFYTPETEEGPRRGIVEQCCTSICSLEQLENYCN)",did not blunt or prevent the premixed SCI-B component from directing a rapid initial phase of insulin action
2,"SEQ ID NO: 7: single-chain insulin analogue SCI-B, C domain EAAAAA, substitutions GluA14, AspB28 and ProB29 (FVNQHLCGSHLVEALYLVCGERGFFYTDPTEAAAAAGIVEQCCTSICSLEQLENYCN)",did not blunt or prevent the premixed SCI-B component from directing a rapid initial phase of insulin action
3,"SEQ ID NO: 8: single-chain insulin analogue SCI-B, C domain EAAARA, substitutions GluA14, AspB28 and ProB29 (FVNQHLCGSHLVEALYLVCGERGFFYTDPTEAAARAGIVEQCCTSICSLEQLENYCN)",did not blunt or prevent the premixed SCI-B component from directing a rapid initial phase of insulin action
